According to ChEMBL document CHEMBL1201862, “PubChem BioAssay data set” (2004):
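Exposure lasted 48 hours, with cells grown in 96-well plates and compounds tested at five concentrations. GI50 is the concentration that inhibits growth by half.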 Active and inactive are the calls of the source. Rule as the data show it: active = GI50 up to about 1.1 µM and inactive = higher.

What was measured:
Experiment in all cases: inhibition of tumour cell growth, NCI panel, 48 h
[1] = test system: IGROV-1
[2] = test system: SK-MEL-5
[3] = test system: SNB-19
[4] = test system: UACC-257
[5] = test system: NCI-H23
[6] = test system: OVCAR-8
[7] = test system: SF-268
[8] = test system: SN12C
[9] = test system: HOP-62
[10] = test system: NCI-H522
[11] = test system: SW-620
[12] = test system: SF-539
[13] = test system: HT-29
[14] = test system: HCT-116
[15] = test system: EKVX
[16] = test system: LOX IMVI
[17] = test system: UACC-62
[18] = test system: RPMI-8226
[19] = test system: RXF 393

Measured: GI50

COc1ccc(CN(CCN(C)C)c2ccccn2)cc1.Cn1c(=O)c2[nH]c(Br)nc2n(C)c1=O
inactive: [1] > 100 µM | [2] > 100 µM | [3] > 100 µM | [4] > 100 µM | [5] > 100 µM | [6] > 100 µM | [7] > 100 µM | [8] > 100 µM | [9] > 100 µM | [10] > 100 µM | [11] > 100 µM | [12] > 100 µM | [13] > 100 µM

CN(C)C(=S)C(Cl)(c1ccccc1)c1ccccc1
inactive: [1] > 100 µM | [2] 36.4 µM | [3] > 100 µM | [4] > 100 µM | [14] 38.4 µM | [5] 53.3 µM | [6] 73.8 µM | [7] > 100 µM | [15] 27.8 µM | [8] 43.7 µM | [9] > 100 µM | [16] 34.5 µM | [10] 33.3 µM | [11] 34 µM | [12] 36.6 µM | [17] > 100 µM | [13] 22.6 µM

CN1CCc2c1nc(-c1ccc(Cl)cc1)c1c2N(C)CC1
inactive: [1] 3.06 µM | [2] 10.5 µM | [3] 22.5 µM | [4] 13.7 µM | [14] 1.85 µM | [5] 14.8 µM | [6] 25.5 µM | [7] 21.5 µM | [15] 35.1 µM | [8] 23.1 µM | [18] 9.06 µM | [19] 10.9 µM | [9] 11.2 µM | [16] 5.01 µM | [11] 24.4 µM | [12] 15.4 µM | [17] 5.94 µM | [13] 4.56 µM

CCC1CCN=C(Cn2cc(C)c(=O)[nH]c2=O)N1 (configuration not stated)
inactive: [1] > 100 µM | [2] > 100 µM | [3] > 100 µM | [4] > 100 µM | [14] > 100 µM | [5] > 100 µM | [6] > 100 µM | [7] > 100 µM | [15] > 100 µM | [8] > 100 µM | [19] > 100 µM | [9] > 100 µM | [16] > 100 µM | [10] > 100 µM | [11] > 100 µM | [17] > 100 µM | [13] > 100 µM

CCOC(=O)CCSS(=O)(=O)c1ccccc1
inactive: [2] 62.2 µM | [3] > 100 µM | [4] > 100 µM | [5] > 100 µM | [6] > 100 µM | [15] > 100 µM | [8] > 100 µM | [18] 35 µM | [19] > 100 µM | [9] > 100 µM | [16] 23.3 µM | [11] 22.2 µM | [17] > 100 µM

Oc1cc(-c2ccc(Cl)cc2)cn2c1nc1ccccc12
inactive: [1] 9.55 µM | [3] 52.4 µM | [4] > 100 µM | [14] > 100 µM | [5] > 100 µM | [6] 17.6 µM | [7] > 100 µM | [15] > 100 µM | [8] > 100 µM | [19] > 100 µM | [9] 31.3 µM | [16] 1.88 µM | [10] 2.09 µM | [11] 6.46 µM | [12] > 100 µM | [17] 29.4 µM | [13] > 100 µM

CCOC(=O)NC(=O)c1cn(CCOC(=O)NCCCCCCNC(=O)OCCn2cc(C(=O)NC(=O)OCC)c(=O)[nH]c2=O)c(=O)[nH]c1=O
inactive: [1] > 100 µM | [2] > 100 µM | [3] > 100 µM | [4] > 100 µM | [14] > 100 µM | [6] > 100 µM | [7] > 100 µM | [15] > 100 µM | [8] > 100 µM | [18] > 100 µM | [19] > 100 µM | [9] > 100 µM | [16] > 100 µM | [10] > 100 µM | [11] > 100 µM | [17] > 100 µM | [13] > 100 µM

OCC12C3C4C1C1C2C3C41CO (configuration not stated)
inactive: [1] > 100 µM | [2] > 100 µM | [3] > 100 µM | [4] > 100 µM | [5] > 100 µM | [6] > 100 µM | [7] > 100 µM | [15] > 100 µM | [8] > 100 µM | [18] > 100 µM | [9] > 100 µM | [16] > 100 µM | [11] > 100 µM | [12] > 100 µM | [17] > 100 µM | [13] > 100 µM

CCCCCCC(=O)C/C(=N/NC(N)=S)C(=O)NC1C2CC3CC(C2)CC1C3 (configuration not stated)
inactive: [1] > 100 µM | [2] > 100 µM | [3] > 100 µM | [4] > 100 µM | [14] > 100 µM | [5] > 100 µM | [6] > 100 µM | [7] > 100 µM | [15] > 100 µM | [8] > 100 µM | [18] > 100 µM | [19] > 100 µM | [9] > 100 µM | [16] > 100 µM | [11] > 100 µM | [17] > 100 µM | [13] > 100 µM

O=S(=O)(O)c1cc(/N=N/c2c(O)ccc3ccccc23)ccc1/C=C/c1ccc(/N=N/c2c(O)ccc3ccccc23)cc1S(=O)(=O)O
inactive: [1] 70.3 µM | [2] > 100 µM | [3] > 100 µM | [4] > 100 µM | [14] > 100 µM | [5] > 100 µM | [6] > 100 µM | [7] > 100 µM | [15] > 100 µM | [8] > 100 µM | [18] > 100 µM | [19] > 100 µM | [9] > 100 µM | [10] > 100 µM | [11] > 100 µM | [17] > 100 µM | [13] > 100 µM

CC(C)(C)[Si](C)(C)OC1C(=O)C[C@H]2CCCC[C@@H]12 (some centres not stated)
inactive: [1] > 100 µM | [2] > 100 µM | [3] > 100 µM | [4] > 100 µM | [14] > 100 µM | [5] > 100 µM | [6] > 100 µM | [7] > 100 µM | [15] > 100 µM | [8] > 100 µM | [18] > 100 µM | [19] > 100 µM | [9] > 100 µM | [16] > 100 µM | [11] > 100 µM | [12] > 100 µM | [17] > 100 µM | [13] > 100 µM

CCCC/C=C1\CCC(CN2CCCCC2)C1=O (configuration not stated)
inactive: [1] 19.1 µM | [2] 26.6 µM | [3] 31.7 µM | [4] 24.9 µM | [14] 17.8 µM | [5] 28.1 µM | [6] 12.8 µM | [7] 32.1 µM | [15] 26.1 µM | [8] 11.5 µM | [19] 10.9 µM | [9] 33 µM | [16] > 28.9 µM | [11] 7.91 µM | [12] 19 µM | [17] 11.4 µM | [13] 10.9 µM
